Laboratory results published in US7868013B2, “Cycloalkyl substituted pyrimidinediamine compounds and their uses” (Rigel Pharmaceuticals, Inc., priority 2004, dated 2011).
pIC50: −log10 of the molar value. Structures can show the parent of a compound that is named as a salt. Where two headings read alike, the source gives them in different places.

Legend:
[1] = tested on: A549 (lung carcinoma); test: In vitro antiproliferation assay, A549 cells (TABLE 1 6 point assay; TABLE 2); type: cell-based
Method: (§1) Certain compounds were tested against other cell types for their ability to inhibit proliferation in standard antiproliferation assays.

[2] = tested on: H1299 (non-small cell lung carcinoma); test: In vitro antiproliferation assay, H1299 cells (TABLE 1 6 point assay; TABLE 2); type: cell-based
Method: as §1

[3] = tested on: COLO 205 (colorectal adenocarcinoma); test: In vitro antiproliferation assay, COLO 205 cells; type: cell-based; conditions: Colo205
Method: as §1

[4] = tested on: DU145 (prostate carcinoma); test: In vitro antiproliferation assay, DU145 cells; type: cell-based; conditions: DU145, read-out: In Vitro IC50
Method: (§2) Cis racemic Compound 15, (1S,2R) enantiomeric Compound 15a and […] enantiomeric Compound 15b were also tested against DU145 (prostate carcinoma), HCT116 (colorectal carcinoma) and MiaPaCa-2 (pancreatic carcinoma) cell lines.
as §1

[5] = tested on: H460 (large cell lung carcinoma); test: In vitro antiproliferation assay, H460 cells; type: cell-based; conditions: Homo sapiens, NCI-H460
Method: as §1

[6] = tested on: H7299; test: In vitro antiproliferation assay, H7299 cells; type: cell-based
Method: as §1

[7] = tested on: HELA (cervical adenocarcinoma); test: In vitro antiproliferation assay, HELA cells; type: cell-based
Method: as §1

[8] = tested on: MiaPaCa-2 (pancreatic carcinoma); test: In vitro antiproliferation assay, MiaPaCa-2 cells; type: cell-based; conditions: Miapaca2, read-out: In Vitro IC50
Method: as §2, §1

[9] = tested on: Colo205 tumors; test: Xenograft treatment model, Colo205 tumors; type: in vivo, SCID mice; conditions: daily and pulsed dosing regimens, all dosage levels tested
Method: (§3) When palpable tumors appeared and were of a preselected volume (approx. 100 mm3 for treatment model; >300 mm3 for regression model), the mice were administered test compounds in the amounts and according to the dosing regimens specified in TABLE 3 (treatment protocol) and TABLE 4 (regression protocol), below.

[10] = tested on: A549 tumors; test: Xenograft treatment model, A549 tumors; type: in vivo, SCID mice; conditions: 5 days on/2 days off, 10 mg/kg qd, p>0.05
Method: as §3

[11] = tested on: Colo205 tumors; test: Xenograft regression model, Colo205 tumors; type: in vivo, SCID mice; conditions: 10 mg/kg/day oral
Method: as §3

[12] = tested on: MiaPaCa tumors; test: Xenograft regression model, MiaPaCa tumors; type: in vivo, SCID mice; conditions: 10 mg/kg/day oral or i.p., similar to taxol
Method: as §3

[13] = tested on: ASPC-1 (pancreatic adenocarcinoma); test: In vitro antiproliferation assay, ASPC-1 cells; type: cell-based; conditions: ASPC1
Method: as §1

[14] = tested on: H1155 (non-small cell lung carcinoma); test: In vitro antiproliferation assay, H1155 cells; type: cell-based
Method: as §1

[15] = tested on: HL160 (promyeloblast promyelocytic leukemia); test: In vitro antiproliferation assay, HL160 cells; type: cell-based
Method: as §1

[16] = tested on: K562 (bone marrow chronic myelogenous leukemia); test: In vitro antiproliferation assay, K562 cells; type: cell-based
Method: as §1

[17] = tested on: L1210 (mouse lymphocytic leukemia); test: In vitro antiproliferation assay, L1210 cells; type: cell-based
Method: as §1

[18] = tested on: MOLT3 (T lymphoblast acute lymphoblastic leukemia); test: In vitro antiproliferation assay, MOLT3 cells; type: cell-based
Method: as §1

[19] = tested on: MOLT4 (T lymphoblast acute lymphoblastic leukemia); test: In vitro antiproliferation assay, MOLT4 cells; type: cell-based
Method: as §1

[20] = tested on: PC3 (prostate adenocarcinoma); test: In vitro antiproliferation assay, PC3 cells; type: cell-based
Method: as §1

[21] = tested on: SW620 (colorectal adenocarcinoma); test: In vitro antiproliferation assay, SW620 cells; type: cell-based
Method: as §1

[22] = tested on: THP-1 (monocyte acute monocytic leukemia); test: In vitro antiproliferation assay, THP-1 cells; type: cell-based
Method: as §1

[23] = tested on: U2OS (bone osteosarcoma); test: In vitro antiproliferation assay, U2OS cells; type: cell-based; conditions: U20S
Method: as §1

[24] = tested on: BXPC-3 (pabcreatic adenocarcinoma); test: In vitro antiproliferation assay, BXPC-3 cells; type: cell-based; conditions: Homo sapiens
Method: as §1

[25] = tested on: CaOV-3 (ovarian adenocarcinoma); test: In vitro antiproliferation assay, CaOV-3 cells; type: cell-based; conditions: Homo sapiens
Method: as §1

[26] = tested on: SK-OV-3 (ovarian adenocarcinoma); test: In vitro antiproliferation assay, SK-OV-3 cells; type: cell-based; conditions: Homo sapiens, SKOV3
Method: as §1

[27] = tested on: SU86.86 (pancreatic carcinoma); test: In vitro antiproliferation assay, SU86.86 cells; type: cell-based; conditions: Homo sapiens, SU.86.86
Method: as §1

[28] = tested on: TOV-21G (ovarian clear cell carcinoma); test: In vitro antiproliferation assay, TOV-21G cells; type: cell-based; conditions: Homo sapiens, TOV21G; TOV-G21
Method: as §1

[29] = tested on: U937 (histiocytic lymphoma); test: In vitro antiproliferation assay, U937 cells; type: cell-based; conditions: Homo sapiens, U-937
Method: as §1

[30] = biological target: T1, Aurora kinase-B (Homo sapiens, UniProt Q96GD4); test: Functional cellular assay of Aurora kinase-B: phosphorylation of histone H3 in A549 cells; type: cell-based; conditions: A549 cells, phospho-histone H3; read-out: IC50 of Aurora kinase-B inhibition
T1 construct: endogenous in cells; host or cells: A549 cells
T1 sequence (Q96GD4 whole entry): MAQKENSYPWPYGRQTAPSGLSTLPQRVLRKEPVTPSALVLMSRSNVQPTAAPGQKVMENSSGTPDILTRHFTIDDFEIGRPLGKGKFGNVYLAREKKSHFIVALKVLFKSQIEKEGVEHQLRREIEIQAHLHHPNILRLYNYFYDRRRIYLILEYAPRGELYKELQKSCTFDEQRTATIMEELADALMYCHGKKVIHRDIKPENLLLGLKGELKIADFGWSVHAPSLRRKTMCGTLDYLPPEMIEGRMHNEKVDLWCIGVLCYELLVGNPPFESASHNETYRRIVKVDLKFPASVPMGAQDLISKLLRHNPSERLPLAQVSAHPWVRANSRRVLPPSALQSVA
Method: Enantiomers E1 and E2 (Compounds 60a and 60b, respectively) were tested for their ability to inhibit Aurora kinase-B in a functional cellular assay involving phosphorylation of its substrate, histone H3. For the assay, A549 cells were seeded into the wells of a microtiter tray (5000 cells/well in 100 μl F12K media) late in the afternoon on Day 1. The cells were grown overnight (37° C., 5% CO2) On Day 2, 50 μl nocodazole (1 μM in media) was added to each well, giving a final concentration of 333 nM. Cells were grown for an additional 18 hrs under the same conditions.
On Day 3, 50 μl aliguots of varying concentrations of test compound were added to the wells Test compounds were prepared by 2-fold serial dilution of a […] stock (in DMSO). The diluted compounds in DMSO were then further diluted 1:50 with media to yield a final solution containing 4× test compound, 98% media, 2% DMSO. After incubation, the media/test compound was washed and the cells fixed with 2% paraformaldehyde (in Dulbecco's phosphate buffered saline “DPBS”; 25 μl per well; […] incubation). […] The cells were then stained with a secondary antibody labeled with a fluorescent dye (secondary antibody donkey anti-mouse AlexFluor 488 (Invitrogen Molecular Probes; 1:2000) and DAPI (1:15,000 of 1 mg/ml stock) for 1 hr at room temperature, washed three times with DPBS (200 μl/well) and stored under DPBS (100 μl/well) at 4° C. until ready for analysis.
A Zeiss Axiovert S100 inverted fluorescent microscope with a Plan-NEOFLUAR 10× objective, a Hamamatsu Lightningcure 200 Mercury-Xenon light source and an Omega Optical XF57 quad filter was used for all data collection. […] Images were captured and analyzed in 12-bit format using segmentation and morphological routines contained in the Image Pro software package. Identified nuclei were counted and pixel data for each cell along with experimental conditions was stored in a database using MySQL 4.0.14. […]
For phospho-histone H3 analysis the data is converted to Facs files and analysed using FlowJo. […]

[31] = Homo sapiens, A549, 6 point assay, A549 cells, read-out: IC50, A549 cells
[32] = Homo sapiens, A549, A549, read-out: In Vitro IC50
[33] = Homo sapiens, NCI-H1299, 6 point assay, H1299 cells, read-out: IC50, H1299 cells
[34] = Homo sapiens, NCI-H1299, H1299, read-out: In Vitro IC50

Structure (SMILES) | pIC50 [1, 31] | pIC50 [1, 32] | pIC50 [2, 33] | pIC50 [2, 34] | pIC50 ([3]; Homo sapiens, COLO 205) | pIC50 ([4]; Homo sapiens, DU-145) | pIC50 [6] | pIC50 ([7]; Homo sapiens, HeLa) | pIC50 ([8]; Homo sapiens, MIA PaCa-2) | pIC50 ([1]; A549, read-out: In Vitro IC50) | pIC50 [15] | pIC50 ([13]; Homo sapiens) | pIC50 ([16]; Homo sapiens) | pIC50 ([17]; Mus musculus) | pIC50 ([18]; Homo sapiens, MOLT-3) | pIC50 ([19]; Homo sapiens, MOLT-4) | pIC50 ([21]; Homo sapiens, SW-620) | pIC50 ([22]; Homo sapiens) | pIC50 ([23]; Homo sapiens, U2OS) | pIC50 [29] | other results
Cc1cc(Nc2ncc(F)c(N[C@H]3[C@@H](C(N)=O)[C@@H]4C=C[C@H]3C4)n2)ccc1N1CCN(C)CC1 [compound 234, (1R,2R,3S,4S)—N4-(3-Aminocarbonylbicyclo[2.2.1]hept-5-en-2-yl)-5-fluoro-N2-[3-methyl-4-(4-methylpiperazin-1-yl)phenyl]-2,4-pyrimidinediamine Hydrogen Chloride Salt] | ≥ 7.00 | ≥ 8.00 | 6.00 to 7.00 | ≥ 6.00 | ≥ 8.00 | ≥ 6.00 | ≥ 6.00 | ≥ 8.00 | ≥ 8.00 | – | – | – | – | – | – | – | – | – | – | – | pIC50 [5]: ≥ 8.00; Reduction in tumor growth rate as compared to a vehicle control [9]: significant (p<0.050) reductions in tumor growth rate; Reduction in mean tumor volume [10]: ~40%; Reduction in tumor growth rate [11]: Significant reductions in tumor growth rate; Reduction in tumor growth rate [12]: Significant reductions in tumor growth rate
Cc1cc(Nc2ncc(F)c(NC3C4C=CC(C4)C3C(N)=O)n2)ccc1N1CCN(C)CC1 (racemic) [Compound 60, 2-exo-3-exo racemic N4-(3-aminocarbonylbicyclo[2.2.1]hept-5-ene-2-yl)-5-fluoro-N2-[3-methyl-4-(4-methylpiperazin-1-yl)phenyl]-2,4-pyrimidinediamine] | – | – | – | – | – | – | ≥ 7.70 | – | – | ≥ 7.70 | ≥ 8.00 | – | – | – | – | – | – | – | – | – | pIC50 [13]: ≥ 7.70; pIC50 [3]: ≥ 8.00; pIC50 [4]: ≥ 7.70; pIC50 ([14]; H1155): ≥ 8.00; pIC50 ([7]; HELA): ≥ 8.00; pIC50 [16]: ≥ 6.00; pIC50 [17]: ≥ 6.00; pIC50 [8]: ≥ 8.00; pIC50 [18]: ≥ 8.00; pIC50 [19]: ≥ 8.00; pIC50 [20]: ≥ 7.70; pIC50 [21]: ≥ 6.00; pIC50 [22]: ≥ 6.00; pIC50 [23]: ≥ 7.70
Cc1cc(Nc2ncc(F)c(N[C@H]3[C@@H](C(N)=O)[C@@H]4C=C[C@H]3C4)n2)ccc1N1CCN(C)CC1 (single isomer, unassigned) [Compound 60a] | ≥ 7.00 | ≥ 8.00 | ≥ 7.00 | ≥ 8.00 | ≥ 8.00 | ≥ 7.70 | ≥ 7.70 | ≥ 8.00 | ≥ 8.00 | – | ≥ 8.00 | ≥ 8.00 | ≥ 6.00 | ≥ 7.70 | ≥ 8.00 | ≥ 8.00 | ≥ 7.70 | ≥ 6.00 | ≥ 8.00 | ≥ 8.00 | pIC50 [24]: ≥ 8.00; pIC50 [25]: ≥ 8.00; pIC50 ([14]; Homo sapiens, NCI-H1155): ≥ 8.00; pIC50 ([20]; Homo sapiens, PC-3): ≥ 8.00; pIC50 [26]: ≥ 7.70; pIC50 [27]: ≥ 7.70; pIC50 [28]: ≥ 8.00; pIC50 [30]: ~8.15
Cc1cc(Nc2ncc(F)c(NC3C4C=CC(C4)C3C(N)=O)n2)ccc1N1CCN(C)CC1 (racemic) [compound 221, Racemic-(2-exo, 3-exo)-N4-(3-aminocarbonylbicyclo[2.2.1]hept-5-en-2-yl)-5-fluoro-N2-[3-methyl-4-(4-methylpiparazin-1-yl)phenyl]-2,4-pyrimidinediamine] | ≥ 7.00 | – | ≥ 7.00 | – | ≥ 8.00 | ≥ 8.00 | – | ≥ 8.00 | ≥ 8.00 | ≥ 8.00 | ≥ 8.00 | ≥ 7.70 | ≥ 6.00 | ≥ 6.00 | ≥ 8.00 | ≥ 8.00 | ≥ 7.70 | ≥ 7.70 | ≥ 7.70 | ≥ 8.00 | pIC50 ([2]; H1299, read-out: In Vitro IC50): ≥ 7.70
